From article PMC3422259, “Additive Mixture Effects of Estrogenic Chemicals in Human Cell-Based Assays Can Be Influenced by Inclusion of Chemicals with Differing Effect Profiles” (PLoS ONE, 2012)
Entries after “also recorded” stand apart in the source; their conditions may differ. Where two headings read alike, the source gives them in different places.

Tests used:
MCF-7 cells [1] = assay: Modulation studies (ESCREEN only): effect of potential modulators on the response evoked by a reference mixture of estrogens (REFmix); assay type: cell-based, human; conditions: for Modulation of the REFmix effect (in words) / Concentration at which suppression of the ESCREEN response to REFmix began: ESCREEN; for Observed modulation: ESCREEN response to REFmix (Mixture 3d, ca. 50% effect), screening, one experiment; for Concentration at which suppression of the ESCREEN response to REFmix began: individual modulator screening
From the text: Modulation studies comprised screening of individual modulators in low power experiments accompanied by parallel testing of an equimolar mixture of all modulators. This combination of low power screening and mixture testing provides the opportunity to assess a high number of chemicals (16 in this case) without a prohibitive amount of experimental effort. In this case the effects of 16 modulators could be evaluated using a total of 19 experimental plates (16 for screening and 3 for mixture testing).
To normalize for small changes in the absolute value of the positive control and the control response to the selected REFmix concentration, the response evoked by the REFmix control on each plate was defined as the 50% effect and all modulator study results are normalized to that value.
A mixture of modulators (MODmix) was also tested and was composed with a fixed ratio of equimolar concentrations, since the activity of each modulator was not known at the time of designing the mixture.
In these modulator studies, we examined 16 single chemicals (listed in Table 7) and an equimolar mixture of all 16 components for their ability to modulate the effects of a reference mixture (REFmix) which contained 14 food additives and contaminants (Table 1, Mixture 3d). […] Single chemicals were tested individually in single experiments (screening) and then a mixture composed using a fixed ratio of equal molarities was subjected to repeated testing.
Figure 5 Results of modulation studies. […] Experimental results are shown as grey circles representing each replicate (duplicate testing within the assay) and obtained in three independent (A) or one (B–Q) experiment (s). Experimental results were normalized by setting the value observed for the REFmix alone, the concentration of which was selected to evoke a […] of ca. 50%, to 0.5. The positive control values (black circles, eight replicates per experimental plate, 25 nM estradiol) are indicated adjacent to the y-axis. […] A black line indicates a LOESS spline fit to the data (A–Q) and a grey line indicates linear regression fit to the data for individual modulators (B–Q). A vertical dotted line is drawn at a mixture concentration of 1.6 µM (A) or at the concentration of each modulator present at that mixture concentration (0.1 uM, B–Q). Visual inspection of the individual modulator results (B–Q) was used to identify possible modulation, i.e. when the experimental data appears to deviate from the linear regression, or when the linear regression is not horizontal, and when the magnitude of the modulation is outside the variation expected in the assay.

MCF-7 cells [2] = assay: Estrogenicity assay, mitogenic endpoint (ESCREEN); conditions: for Signs of estrogenicity (in words): chemical screened as potential modulator, tested alone
Experimental: The ESCREEN assay was performed using cloned MCF-7 cells (described in [6], gifted from A. Soto, Boston) and the established ESCREEN method was followed using an adapted 96-well format. Cells were cultured in DMEM (5% FCS). For experiments, cells were seeded in clear polystyrene 96 well plates at a density of 2,500 cells/well and allowed to attach for 24 hours before washing with rinse media (phenol red-free DMEM, no supplements). […] Test chemicals were dissolved in ethanol to give stock solutions of millimolar concentrations. Test and control solutions were diluted prior to application in dosing media (phenol red free DMEM, 10% charcoal-dextran stripped FCS). The final concentration of ethanol was 0.5% in test and control wells. […] At all stages, media removal from cells was carried out gently and in a controlled fashion by use of an electronic multichannel pipette set to the lowest speed possible. Controls were run as eight replicate wells per plate and compounds were tested in a dilution series comprising eight concentrations, each concentration tested in two replicate wells per plate. The plate layout was designed to reduce variation due to evaporation and spreading of test chemicals, and had been previously optimised in the laboratory. After application of test solutions, plates were incubated for 120 hours before fixation with 10% trichloroacetic acid and sulforhodamine B (SRB) staining to measure protein and allow the indirect quantification of cell number.
Experiments were performed on different days meaning that results for different dilution series and different batches of the test chemicals were obtained on different days. Each single chemical was tested in three or more independent experiments. Use of normalisation meant that data from different experiments could be reliably combined and compared, as discussed previously. Data was expressed relative to the positive control, rather than as fold change from the vehicle response, for two reasons.
Results from regression analysis for each test chemicals were used to predict the CA effect for fixed-ratio mixtures designed on 1) equi-effective concentrations (balanced design), 2) possible human serum levels (non-balanced design). The original mathematical formulation of CA that defines for a mixture composed of n components with concentration c1 of the first component, c2 of the second component, and cn for the n-th component a combination effect X is [drawing 1] (1) Here, ECX1, ECX1 …, ECXn are the concentrations of the individual components that on their own produce the same effect X as the mixture, [15] The quotients cn/ECXn are called toxic units and scale all compounds in the mixture relative to their toxicity. They can be interpreted as the contribution of the compound to the total mixture concentration that is expected to produce the mixture effect X. According to equation 1, a mixture effect for a pre-defined effect level X is described only implicitly. However, if the individual concentrations ci are expressed as relative fractions pi to the total mixture concentration ECxMix, then equation 1 can be re-arranged to [drawing 2] (2) which allows the direct calculation of the mixture concentration that is expected to produce the mixture effect X. To form a prediction curve, equation 2 is iterated through for various effect levels resulting in sets of effects and their associated predicted mixture concentration which are then plotted to produce a graph of the effect prediction.
Both equations 1 and 2 require knowledge of the concentration of each mixture component that on its own produces the effect magnitude under consideration. For this reason, these equations cannot be used for predicting mixture effects that exceed the maximal effect of the least efficacious component, because those effect concentrations cannot be defined.

Compound | Modulation of the REFmix effect (in words) (MCF-7 cells [1]) | Observed modulation (MCF-7 cells [1]) | Signs of toxicity (in words) (MCF-7 cells [2]; ESCREEN) | Signs of estrogenicity (in words) (MCF-7 cells [2]; ESCREEN) | Concentration at which suppression of the ESCREEN response to REFmix began (MCF-7 cells [1]) | Suppression of the ESCREEN response to REFmix (MCF-7 cells [1]; at 100 nM, plateau at that level up to 10 µM) | Signs of estrogenicity: Active at concentration (MCF-7 cells [2]; ESCREEN, ‘Active’ = positive signal clearly distinguishable from assay variability and noise) | Suppression of the REFmix effect (MCF-7 cells [1]; at 10 µM) | Signs of toxicity (in words) (MCF-7 cells [2])
COc1ccc(O)c(C(C)(C)C)c1 [BHA, Butylated hydroxyl anisole] | possible negative modulation | Possible negative | None | None | – | – | – | – | –
Clc1ccc(-c2cc(Cl)c(Cl)c(Cl)c2)cc1Cl [PCB #126, 3,3′,4,4′,5-pentachlorobiphenyl (PCB #126)] | clear negative modulation | Clear negative | None | – | 1–10 nM and around 10 nM | 50% | Active at 10 µM or higher | – | –
Cc1cc(C(C)(C)C)c(O)c(C(C)(C)C)c1 [BHT, Butylated hydroxytoluene] | possible negative modulation | Possible negative | None | None | – | – | – | – | –
O=[N+]([O-])[O-].O=[N+]([O-])[O-].[Pb+2] [Pb(NO3)2, Lead nitrate] | possible negative modulation | Possible negative | None | None | – | – | – | – | –
Clc1cc(Cl)c(-c2cc(Cl)c(Cl)cc2Cl)cc1Cl [PCB #153, 2,2′,4,4′,5,5′-hexachloro biphenyl (PCB #153)] | no indication of negative modulation | None | None | None | – | – | – | – | –
Cn1c(N)nc2ncc(-c3ccccc3)cc21 [PhIP, 2-amino-1-methyl-6-phenylimidazo [4,5-b] pyridine] | possible negative modulation | Possible negative | None | None | – | – | – | – | –
Cc1cnc2ccc3c(nc(N)n3C)c2n1 [MeIQx, 2-Amino-3,8-dimethyl imidazo [4,5-f] quinoxaline] | no indication of negative modulation | None | None | None | – | – | – | – | –
Clc1ccc(-c2ccccc2Cl)cc1 [PCB #8, 2,4′-dichlorobiphenyl (PCB #8)] | no indication of negative modulation | None | None | None | – | – | – | – | –
[Cl][Cd][Cl] [CdCl2, Cadmium chloride] | clear negative modulation; also recorded: showed negative modulation | Clear negative | – | None | around 10 nM | – | – | 80% | –
Clc1cc(Cl)c(-c2cc(Cl)c(Cl)c(Cl)c2Cl)cc1Cl [PCB #180, 2,2′,3,4,4′,5,5′-heptachloro biphenyl (PCB #180)] | no indication of negative modulation | None | – | None | – | – | – | – | None
